The text below walks through data of a melting point compilation (Tetko et al.; mined from patent text by program, amines drawn as free bases though some values may be those of a salt).

The structures appear in SMILES notation.

Turning to `CN(C)C(=O)C(C)(C)n1cc(Cl)c(-c2ccccc2)n1`, the melting point is 117 to 119 °C.
Under `O=C(O)C1=Cc2cc(I)ccc2OC1C(F)(F)F` (centres undefined) stands 168 to 170 °C.
Under `C#Cc1cccc(Nc2ncnc3ccc(S(=O)(=O)n4ccc(C=CC(=O)NOC5CCCCO5)c4)cc23)c1` (centres undefined) stands 152 to 155 °C; under `COCc1cc(-c2ncn(-c3cccc(Oc4ccccc4)c3)c2C)on1`, 83 °C.
Under `BrCc1nc(-c2ccccc2)nc2ccccc12` stands 110 °C; under `Cc1c(C)c2c(c(C)c1NC(=O)c1ccc(Cl)cc1)C(c1ccc(C(C)C)cc1)C1(CCN(C)CC1)O2` (centres undefined), 293 to 295 °C.
In the case of `CC(C)n1nc(-c2c(OCCF)nc(N)nc2-c2ccccc2)ccc1=O`, the melting point lay within 129 to 130 °C.
Under `CCOC(=O)c1[nH]c(C)c(C)c1O` stands 111 to 113 °C; under `CC(=O)n1c(Br)cc(-c2ccc(F)cc2)c1-c1ccc(S(C)(=O)=O)cc1`, 121 to 125 °C; under `O=C(NCc1ccc(Oc2ccccc2)cc1)C1CCC1`, 69 to 71 °C.
Under `CSc1cn(C)c2cc(-c3ccccc3Cl)sc2c1=O` stands 175 to 177 °C; under `Cc1cnccc1-c1sc(NC(=O)c2ccncc2)nc1-c1ccco1`, 156 to 157 °C; under `CCn1c(=O)n(OCc2ccccc2)c(=O)c2cc(F)c(N3CCNCC3)cc21`, 166 to 167 °C.
As for `O=[PH](c1ccc2c(c1)OCO2)c1ccc2c(c1)OCO2`, the melting point was found to be 128 °C.
Under `CC(C)C1C(=O)NC(c2ccc(NC(=O)CCl)cc2)c2ccccc21` (centres undefined) stands 269 to 270 °C.
Under `COc1cc(OC)c(C(C)=O)c(O)c1C` stands 143 to 144 °C.
In turn, `CN(C)c1ccc(-c2nc(Cl)c(CC(N)=O)n2Cc2ccccc2)cc1` gave a melting point of 215 to 216 °C.
In turn, `CCOc1nn(-c2ccccc2Cl)c(=O)o1` displayed a melting point of 45 °C.
In turn, `CN(C)C1(c2ccc(F)cc2)CCC2(CC1)NCCc1c2[nH]c2ccccc12` (centres undefined) yielded a melting point of 249 to 250 °C.
Take `COc1cc(CCN2CCCCC2)cc(OC)c1-c1ccc(C[C@H](NC(=O)c2c(Cl)cccc2Cl)C(=O)O)cc1`: the melting point is 195 °C.
Molecule `CC(=O)Nc1ccc(-n2c(-c3ccccc3)cc3c2CCCC3)cc1C(=O)O` returned a melting point of 192 to 194 °C.
Consider `CC(=O)OC1CSC(Oc2cncc(-c3ccc(C)cc3Cl)c2)C(OC(C)=O)C1OC(C)=O` (centres undefined), for which the melting point was 162 °C.
Under `COc1cc2c(cc1OC)C1CC(=O)C3CCCC3N1CC2` (centres undefined) stands 105 to 114 °C; under `CC(C)NCCNC(=O)c1ccc(OCc2ccc(-c3ccccc3)cc2)cc1`, 150 to 154 °C.
As for `CC1(C(=O)Cn2cncn2)COCOC1`, the melting point lay in the range of 95 to 97 °C.
`COC/C(=C1/SC(=O)NC1=O)c1cccc2ccccc12`: the melting point fell in the range of 133 to 134 °C.
For `CS(=O)(=O)c1ccnc(Oc2cc(C#N)cc(C#N)c2)n1`, the melting point is 189 to 191 °C.
Under `CN(O)C(=O)Nc1ccc(S(C)=O)cc1` (centres undefined) stands 198 °C; under `CN(c1cccc2cc(C3=NCC(CN4CCS(=O)CC4)S3)[nH]c12)S(=O)(=O)c1nccn1C` (centres undefined), 161 to 162 °C.
The molecule `CCN(CC)C(=O)c1ccccc1-c1ccc2ccccc2c1` yielded a melting point of 52 to 53 °C.
Under `O=C(Nc1ccc(-c2ccccc2)s1)C1CCCCC1` stands 174 °C.
`COc1ccc(C(C)(C)C)c(O)c1C(=O)Nc1ccc(S(=O)(=O)C(F)(F)F)cc1Cl`: the melting point fell in the range of 198 to 199 °C.
Under `Fc1cccc2[nH]cc(C3CCC4(CC3)OCCO4)c12` stands 161 to 162 °C; under `CCC(CSC(=S)N(C)C)[N+](=O)[O-]` (centres undefined), 23 °C.
Under `COc1ccc(Cl)cc1C(=O)CCCCCl` stands 52 to 54 °C.
Under `O=C(OC1COC(OC(=O)C2CCCCC2)CO1)C1CCCCC1` (centres undefined) stands 156 to 158 °C; under `CCCc1c(OCCCOc2cc(O)c(-c3ccc(F)cc3)cc2CC)cccc1C(=O)c1ccccc1C(=O)O`, 50 to 52 °C.
In turn, `Cc1ccccc1-n1c(C=Cc2ccccc2F)nc2ccsc2c1=O` registered a melting point of 220 to 221 °C.
With `Cc1cc2ncc(C(=O)O)nc2cc1C`, the melting point lay within 214 to 216 °C.
Consider `O=C(O)C(=O)CC(=O)c1cccn1Cc1cccc(F)c1F`, for which the melting point fell in the range of 154 to 156 °C.
Under `O=C(O)c1cc(F)c(F)cc1Nc1ccnn1-c1ccccn1` stands 242 to 245 °C; under `CCCc1c2c(cc3c1OC(O)(C(=O)OCC)CC3=O)CCCC2` (centres undefined), 126 to 128 °C.
In turn, `O=C(N[C@@H](CSc1ccc(C(F)(F)F)cc1[N+](=O)[O-])C(=O)O)OCc1ccccc1` gave a melting point of 150 to 153 °C.
`CCn1ncc2c1NC(=O)CC2C(F)(F)F` (centres undefined) showed a melting point of 129 to 130 °C.
Under `CC(C)(C)C1OC1C(O)C1CCCCC1` (centres undefined) stands 38 to 48 °C; under `CC(=O)c1c(Br)[nH]c(-c2ccncc2)c1C`, 205 to 206 °C.
Under `CN1CC=C(c2c[nH]c3ccc(NC(=O)c4ccc(F)cc4Cl)cc23)CC1` stands 212 to 222 °C; under `Cc1cc2c(c(C(=O)O)c1)OCC2`, 177 to 179 °C.
Under `CC1CC(C(=O)Nc2ccccc2)(C(=O)OC(C)(C)C)N(C(=O)CNC(=O)OC(C)(C)C)C1c1ccccc1` (centres undefined) stands 182 °C; under `O=c1[nH]c(=S)[nH]cc1Oc1cccnc1`, 227 to 230 °C; under `CC(C)c1nc(CCCO)n(CCO)c1Sc1cc(Cl)cc(Cl)c1`, 155 to 163 °C.
Regarding `Cn1ccnc1-c1ccc(OCC(O)CNCCOc2ccc(O)c(C(N)=O)c2)cc1` (centres undefined), the melting point lay within 108 to 112 °C.
For `COc1ccc(S(=O)(=O)N2C(=O)C(c3ccccc3OC)(N3Cc4cc(OC)c(OC)cc4C[C@H]3C(=O)N(C)C)c3cc(Cl)ccc32)c(OC)c1` (some centres undefined), the melting point was found to be 157 °C.
Under `CON=C(C(=O)OC)c1ccccc1ON=C(C)c1cccc(C)c1` stands 90 °C; under `CCOC(=O)C1=C[C@@H](OC(CC)CC)[C@@H](NC(C)=O)[C@H](N=[N+]=[N-])[C@@H]1OS(C)(=O)=O`, 96 to 98 °C.
With `CC(C)N1CCN(S(=O)(=O)c2ccc(NC(=O)Nc3ccc(C(F)(F)F)cc3)cc2)CC1`, the melting point was 208 to 212 °C.
Under `Cc1ccc(C(N)=O)cc1F` stands 161 to 163 °C; under `COc1cc(N2C(=S)N3CCCCC3C2O)c(F)cc1Cl` (centres undefined), 208 to 215 °C.
`CN1CCC(Nc2nc3ccccc3n2Cc2cnccn2)CC1`: the melting point was found to be 169 °C.
Regarding `CC(=O)N1CCc2c(sc(C)c2CCBr)C1`, the melting point was 93 to 95 °C.
On to `N#CCCc1c(SC(F)(F)F)c(C#N)c(Cl)n1-c1c(Cl)cc(C(F)(F)F)cc1Cl`, for which the melting point was determined as 150 °C.
Under `Oc1ccc(-c2nc3cc(O)cc(Br)c3o2)c(F)c1` stands 248 to 250 °C.
Turning to `Cc1ccc2c(c1)C1(OCCO1)C1(CCC(=O)CC1)C2`, the melting point lay within 116 to 118 °C.
In the case of `O=Cc1cc([N+](=O)[O-])ccc1-c1ccccc1`, the melting point came out at 79.5 °C.
Under `O=C(Nc1ccc(C2=CCN(C(=O)Nc3ccc(OCCO)cc3Cl)CC2)cc1)Nc1ccccc1F` stands 173 to 178 °C.
For the molecule `Cc1ccc(-c2nc3ccc(C)cn3c2CC(=O)O)cc1`, the melting point was 228 to 230 °C.
Under `COc1ccc2c(c1OC(C)=O)NC(O)C1CCCN1C2=O` (centres undefined) stands 144 to 146 °C; under `N#Cc1ccc(CCc2n[nH]c3c2c(=O)n(-c2ccccc2)c2ncccc32)cc1`, 267 to 269 °C.
For the molecule `CN(CCN(C)S(=O)(=O)c1ccc(F)cc1)C(=O)c1ccc(Nc2ccnc3cc(C(F)(F)F)ccc23)cc1`, the melting point lay within 191 to 193 °C.
Under `c1ccc2c(c1)ncc1ncsc12` stands 114 to 116 °C; under `CCOC(=O)Cc1csc(NC(=S)Nc2cc(Cl)ccc2C)n1`, 177 to 179 °C; under `COC(=O)c1ccc(C(=O)Nc2nnc(-c3cc(Cl)cc(Cl)c3O)s2)nc1`, 301 °C.
Under `Nc1nc2ccccc2c2c1nc(CO)n2CC1(O)CCCCC1` stands 244 to 248 °C.
Molecule `OC1(c2ccccc2)CNN=C1c1ccc(Cl)cc1` (centres undefined) displayed a melting point of 195 to 196 °C.
Under `COc1ccc(P2(=O)c3ccccc3CN2c2ccccc2)cc1` (centres undefined) stands 190 to 192 °C; under `CCCCCCCCCCCCCCOc1ccc(C(=O)N(CC(=O)OC)CC(=O)OC)cc1OCCCCCCCCCCCCCC`, 70 to 71 °C.
In turn, `N#CCNC(=O)c1ccc([N+](=O)[O-])cc1` gave a melting point of 147 to 149 °C.
Under `c1ccc(-c2nc3c4ccccc4ccn3n2)cc1` stands 157 to 158 °C.
Under `CCCc1c(OCCCCCCc2cccc(OCCCCCO)c2CCC(=O)O)ccc2c1OCCC2=O` stands 102 to 103 °C.
`CCCCNC(=O)c1ccccc1CN1C(=O)C2(COc3cc4c(cc32)CCO4)c2ccccc21` (centres undefined) gave a melting point of 176 to 178 °C.
Under `CC(=O)Nc1nc(CCc2ccc(CON)cc2)cs1` stands 130 °C.
`O=C(CN1CCNCC1)Cn1c2ccc(Br)cc2c2cc(Br)ccc21` yielded a melting point of 175 °C.
Under `CC(C)(C)Cc1c(CC(C)(C)C(=O)O)n(Cc2ccc(Cl)cc2)c2ccc(OCc3ccc4ccccc4n3)cc12` stands 172 °C.
The molecule `CCc1c(CCC(=O)O)c[nH]c1C=O` showed a melting point of 128 to 134 °C.
For the molecule `CC(C)NNc1ncnc2c1cnn2C`, the melting point stood at 57 °C.
Under `COc1cc2c(c(OC)c1OC)CCC(C(=O)Cc1cccc(F)c1)C2C#N` (centres undefined) stands 120 to 122 °C; under `CCCCCCCN(C)C(=O)Nc1ccc(F)cc1NC(=O)c1cc(C(C)(C)C)c(O)c(C(C)(C)C)c1`, 164 to 167 °C.
Under `Cc1ccc(-c2c[nH]c(-c3ccc4c(c3)C(C)(C)CCC4(C)C)c2)cc1` stands 190 to 192 °C.
Under `CCCn1c(=O)c2c(nc(/C=C/c3ccc(OC)c(OC(C)=O)c3)n2C)n(CCC)c1=O` stands 201 to 202 °C.

What is called melting point is the temperature of the solid-liquid transition.
